Values quoted from earlier work as cited in patent publication US9326524B1, “Insect repellent compositions” (Nantucket Spider, LLC, priority 2014, dated 2016).

Tested on: mosquitoes
Settings: compared with naturally derived PMD in the form of OLE

## CC1CCC(C(C)(C)O)C(O)C1 (stereo not shown) [Pure PMD, p-Menthane-3,8-diol]
  efficacy in repelling mosquitoes: significantly less efficacious
